Results published in article PMC9856199, “Intact Transition Epitope Mapping—Force Differences between Original and Unusual Residues (ITEM-FOUR)” (Biomolecules, 2023).
Peptide text beside a SMILES is read from it.

Columns and labels:
Type in all cases: binding
[1] = tested on: monoclonal anti-hcTn I antibody [MF4] (ab38210 from Abcam); test: ITEM-FOUR: nanoESI-MS gas-phase dissociation of antibody-peptide immune complexes; settings: for binder group by ITEM-FOUR: grouping by ΔHm0g# and binding behaviour in the gas phase; for Initial [%] (immune complex amount at the lowest applied ∆CV): normalized educt ion intensity at ∆CV 2 V; for Initial [%] (immune complex amount at the lowest applied ∆CV) / Final [%] (immune complex amount at the highest applied ∆CV): antibody:peptide 1:2.2, 200 mM ammonium acetate pH 6.7, averaged from all measurements; for Final [%] (immune complex amount at the highest applied ∆CV): normalized educt ion intensity at ∆CV 80 V; for KD m0g#: apparent gas-phase dissociation constant, unitless number; for KD m0g# / kD m0g#: mean charge state, extrapolated to no excess energy; for kD m0g#: apparent gas-phase dissociation rate constant; for ΔGm0g# / ΔHm0g# / TambΔSm0g#: apparent, gas-phase immune complex dissociation; for TambΔSm0g#: Tamb 298 K; for Slope: slope of tangent along steep part of Boltzmann curve
Method: Starting materials and antibody-peptide complex-containing solutions were prepared as previously described. In brief, an aliquot of 25 µL (50 µg) of the monoclonal anti-hcTn I antibody [MF4] (ab38210 from Abcam, Cambridge, United Kingdom) was placed on a 10K centrifugal filter device (Merck Millipore, Carrigtwohill, Ireland) with 400 µL 200 mM ammonium acetate, pH 6.7. After centrifugation at 13,000 rpm for 7 min in an Eppendorf centrifuge (MiniSpin, Eppendorf, Hamburg, Germany), the flow through was discarded and the filter was filled-up with 450 µL 200 mM ammonium acetate, pH 6.7. This centrifugation/discarding/refilling step was repeated eight times. Afterwards, the filter was placed upside down in a new tube and centrifuged for 5 min at 4500 rpm. Approximately 50 µL of antibody solution were collected (solution 1). […] Synthesized hcTn I peptides (Table 1) were purchased as lyophilized powders (peptides and elephants, Hennigsdorf, Germany) and dissolved in 200 mM ammonium acetate, pH 6.7, to obtain peptide concentrations of ca. 2.0 mg/mL, each. The actual peptide concentrations of individual peptide solutions were determined using the Qubit^TM 2.0 Fluorometer assay. Afterwards, all peptide solutions were diluted 1:100 with 200 mM ammonium acetate, pH 6.7 (solution 2). To obtain immune-complex-containing mixtures, the antibody solution (solution 1) and the peptide solution (solution 2) were mixed to obtain final molar antibody-peptide ratios of 1:2.2 (solution 3). Typically, 4 µL of antibody solution were mixed with the appropriate volume (typically 1–2 µL) of the individual peptide solution. Solutions 3 were incubated at room temperature for at least 1 h.
For each ITEM-FOUR examination, 3 µL of the peptide, antibody, or immune complex-containing solution were loaded into nanoESI capillaries that were pulled and gold coated in house. NanoESI-MS measurements were performed with a Synapt G2-S mass spectrometer (Waters MS-Technologies, Manchester, United Kingdom) with the following settings for ITEM-FOUR measurements: capillary voltage, 1.8 kV; source temperature, 40 °C; source offset voltage, 110 V; sample cone voltage, 110 V; cone gas flow, 100 L/h; trap gas flow, 8.0 mL/min; transfer collision cell voltage, 2 V. Measurements were acquired in positive-ion resolution mode, applying a mass window of m/z 200–8000. This mass range was calibrated using 1 mg/mL sodium iodide dissolved in isopropanol/water (50:50, v/v). The quadrupole analyzer was used with the following settings: M1 = 4000, dwell time, and ramp time 25%; M2 = 5000, dwell time, and ramp time 25%; and M3 = 6000 to block transmission of lower molecular weight ions. The first collision cell (TRAP) was used to dissociate antibody-peptide complexes by increasing the collision cell voltage difference (∆CV) in a stepwise manner every 60 s. The collision cell voltage difference steps were: 2, 4, 6, 8, 12, 16, 20, 30, 40, 50, 60, 70, and 80 V. Measurements were repeated at least twice (up to seven times) per immune complex, generating a total of 32 measurement series. The mass spectrometry proteomics data have been deposited to the ProteomeXchange Consortium via the PRIDE [33] partner repository with the dataset identifier PXD038365.
MassLynx version 4.1 (Waters MS-Technologies) was used for data analysis as described previously. First, the scans of each ∆CV setting encompassing 60 s of recording were combined to generate an average mass spectrum for each ∆CV step. Next, the mass spectra were smoothened in 20 cycles with a window of 10 using the Savitzky-Golay algorithm. The ion intensities of all molecular species and their corresponding charge states (complex ions, complex-released peptides, and antibody fragments) were read after smoothing. A bell-shaped Gaussian curve of the intensities of each molecular species was calculated using Origin 2017 (32-bit) SR2 (OriginLab Corporation, Northampton, MA, USA). […]

[2] = target: monoclonal anti-hcTn I antibody [MF4] (ab38210 from Abcam); test: Isothermal titration calorimetry of immune complex formation in solution; settings: for ∆H / ∆G: immune complex formation in solution; for ∆H: 298 K; for ∆G: calculated from KA (van´t Hoff equation); for T∆S: T = 298 K, calculated with Gibbs-Helmholtz equation
Method: The monoclonal anti-hcTn I antibody [MF4] (ab38210 from Abcam, Cambridge, United Kingdom) was stored in PBS (0.138 M NaCl; 0.0027 M KCl, pH 7.4 from Sigma-Aldrich, St. Louis, MO, US), pH 7.4, and was used as purchased. The hcTn I peptides 1, 2, 4, 6, 7, and 8 were dissolved in PBS and stock solutions with 0.32 to 0.93 mg/mL peptide concentrations were prepared.
Isothermal titration calorimetry measurements were performed with an Affinity ITC instrument (Waters|TA Instruments, New Castle, DE, USA) at T = 298 K equipped with a 190 µL sample cell and a matching reference cell, AccuShot for precise delivery of the titrant, and a Flex Spin for slow speed stirring (125 rpm), efficient mixing, and highest sensitivity. The anti-hcTn I antibody was placed in the sample cell at 1.95 µM (in PBS). The hcTn I peptides, each at 40 µM (in PBS), were automatically titrated to the antibody in 18–20 steps (2 µL per step). The time between titrations was 200 s to establish a baseline between each injection for accurate heat determination and modeling.
The integrated areas under each injection peak (heat over time) were plotted against the active species’ respective molar ratios ranging from 1:0.4 to 1:6.6. An independent binding model was chosen to fit all the data and directly determine the enthalpy (ΔH) and association constant (KA). Gibbs free energy (ΔG) is calculated from the KA using the van´t Hoff equation. The change in entropy term (ΔS) is calculated applying the Gibbs-Helmholtz equation.

[3] = tested on: anti-Histag antibody; test: nanoESI-MS of peptide mixed with unrelated antibody (specificity control); settings: binary mixture, 200 mM ammonium acetate pH 6.7
Method: Figure S15. Nano-ESI mass spectra of Troponin I peptide 7 (ENREVGDWPKNIDAL) upon incubation with anti-Histag […]
ion signal) and (b) with blocked transmission of low mass ions (< 4800 ) and collision cell voltage differences of 2V and (c) with blocked transmission of low mass ion (< 4800) and collision cell voltage differences of 80V. Charge states are given for […]
Antibody fragment ion signals are visible between m/z 1200 and 2300 in (c). Solvent: 200 mM ammonium acetate, pH 6.7.
(1 picture or pasted object on this page, not shown here)

[4] = ITC in PBS pH 7.4, 298 K, antibody 1.95 µM in cell, peptide 40 µM titrant, independent binding model, unitless number
[5] = ITC in PBS pH 7.4, 298 K, independent binding model, unitless number

| Compound | binding to anti-hcTn I antibody (in words) ([1]; ITEM analysis of peptide-antibody mixture, molar ratio 2.2:1) | binder group by ITEM-FOUR [1] | Initial [%] (immune complex amount at the lowest applied ∆CV) [1] | Final [%] (immune complex amount at the highest applied ∆CV) [1] | KD [2, 4] | KA [2, 5] | binding in solution (in words) ([2]; ITC, PBS pH 7.4, 298 K) | ∆H ([2]; ITC) | ∆G ([2]; ITC) | T∆S ([2]; ITC) | complex formation with anti-Histag antibody (in words) [3] | KD m0g# [1] | kD m0g# [1] | ΔGm0g# [1] | ΔHm0g# [1] | TambΔSm0g# [1] | Slope [1] | Kd [2, 4] |
| --- | --- | --- | --- | --- | --- | --- | --- | --- | --- | --- | --- | --- | --- | --- | --- | --- | --- | --- |
| ENREVGDWPKNIDAL [Peptide 7] | bound by the paratope in an unorthodox fashion | weak and unorthodox binder | 15.37% | 5.90% | n.b. | n.b. | did not bind in solution | n.b. | n.b. | n.b. | no complex formation was detected | – | – | – | – | – | – | – |
| CC[C@H](C)[C@H](NC(=O)[C@H](CC(N)=O)NC(=O)[C@H](CCCCN)NC(=O)[C@H](CC(C)C)NC(=O)[C@H](Cc1c[nH]c2ccccc12)NC(=O)[C@H](CC(=O)O)NC(=O)CNC(=O)[C@@H](NC(=O)[C@H](CCC(=O)O)NC(=O)[C@H](CCCNC(=N)N)NC(=O)[C@H](CC(N)=O)NC(=O)[C@@H](N)CCC(=O)O)C(C)C)C(=O)N[C@@H](CC(=O)O)C(=O)N[C@@H](C)C(=O)N[C@@H](CC(C)C)C(=O)O [Peptide 4] (H-ENREVGDWLKNIDAL-OH) | – | strong binders (“strong binders” (group II) with ΔHm0g# values below −2 kJ/mol) | 41.60% | 23.12% | – | 4.12 × 10^6 Ø | – | -12.45 kcal/mol | -9.027 kcal/mol | -3.425 kcal/mol | – | 4.77 × 10^−12 Ø | 7.37e+12 s⁻¹ | 15.44 kcal/mol | -0.538 kcal/mol | -15.97 kcal/mol | −0.35 %/V | 243 nM |
| CC[C@H](C)[C@H](NC(=O)[C@H](CC(N)=O)NC(=O)[C@H](CCCCN)NC(=O)[C@H](CCCNC(=N)N)NC(=O)[C@H](Cc1c[nH]c2ccccc12)NC(=O)CNC(=O)CNC(=O)[C@@H](NC(=O)[C@H](CCC(=O)O)NC(=O)[C@H](CCCNC(=N)N)NC(=O)[C@H](CC(N)=O)NC(=O)[C@@H](N)CCC(=O)O)C(C)C)C(=O)N[C@@H](CC(=O)O)C(=O)N[C@@H](C)C(=O)N[C@@H](CC(C)C)C(=O)O [Peptide 6] (H-ENREVGGWRKNIDAL-OH) | – | very strong binders (Peptides 1, 2, and 6 are “very strong binders” (group I) as their ΔHm0g# values of the gas-phase dissociation reaction are above −2 kJ/mol) | 58.83% | 23.33% | – | 2.43 × 10^6 Ø | – | -10.85 kcal/mol | -8.721 kcal/mol | -2.13 kcal/mol | – | 4.62 × 10^−12 Ø | 2.9e+12 s⁻¹ | 15.46 kcal/mol | -0.442 kcal/mol | -15.89 kcal/mol | −0.75 %/V | 411 nM |
